# Measured values as given in US9480259B2, “Pyrazolopyrans having herbicidal and pharmaceutical properties” (BASF SE, priority 2012, dated 2016).
# Molecular target: Arabidopsis thaliana SHMT
# Test: SHMT activity assay (ED50 SHMT), coupled with N5,N10-CH2-THF dehydrogenase, NADH at 340 nm
# Type: biochemical
# Conditions: Arabidopsis thaliana SHMT enzyme assay; values given as upper bounds
# In short: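 His-tagged SHMT purified on Ni-NTA. NADH formation followed at 340 nm for 30 min; ED50 from inhibition of initial velocity.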
row,Compound,EC50 [nM]
1,Cc1n[nH]c2c1C(c1cc(C#N)cc(N(C)C(=O)c3cccc(C(=O)O)c3)c1)(C(C)C)C(C#N)=C(N)O2 (stereo not drawn) [Compound 2.717],< 100
2,Cc1n[nH]c2c1C(c1cc(C#N)cc(C#N)c1)(C(C)F)C(C#N)=C(N)O2 (stereo not drawn) [Compound 2.687],< 100
3,Cc1n[nH]c2c1C(c1cc(Cl)cc(N(C)C(=O)CC#N)c1)(C1CCC1)C(C#N)=C(N)O2 (stereo not drawn) [Compound 2.696],< 10
4,Cc1n[nH]c2c1C(c1ccc(CCc3nnn[nH]3)c(-c3nnn[nH]3)c1)(C1CCC1)C(C#N)=C(N)O2 (stereo not drawn) [Compound 2.654],< 100
5,Cc1n[nH]c2c1C(c1cc(Br)cc(Br)c1)(C1CC(F)(F)C1)C(C#N)=C(N)O2 (stereo not drawn) [Compound 2.703],< 100
6,COC(=O)c1ccc(-c2cc(C#N)cc(C3(C(C)C)C(C#N)=C(N)Oc4[nH]nc(C)c43)c2)s1 (stereo not drawn) [Compound 2.705],< 10
7,Cc1n[nH]c2c1C(c1cc(Cl)cc(N(C)C(=O)CCCC#N)c1)(C1CCC1)C(C#N)=C(N)O2 (stereo not drawn) [Compound 2.700],< 100

# Same assay, conditions: Table 2, Arabidopsis thaliana SHMT enzyme assay; values given as upper bounds
row,Compound,EC50 [nM]
1,Cc1n[nH]c2c1C(c1cc(Cl)cc(C(=O)OCc3ccccc3)c1)(C1CCC1)C(C#N)=C(N)O2 (stereo not drawn) [Compound 2.381],< 10
2,Cc1n[nH]c2c1C(c1cc(-c3nnn[nH]3)cc(C(F)(F)F)c1)(C1CCC1)C(C#N)=C(N)O2 (stereo not drawn) [Compound 2.355],< 10
3,N#CC1=C(N)Oc2[nH]ncc2C1(c1cc(Cl)cc(Cl)c1)C1CCC1 (stereo not drawn) [Compound 2.244],< 10
4,Cc1n[nH]c2c1C(c1cc(Cl)cc(-c3ccc(C(F)(F)F)cc3)c1)(C1CCC1)C(C#N)=C(N)O2 (stereo not drawn) [Compound 2.250],< 10
5,N#CC1=C(N)Oc2[nH]ncc2C1(c1cc(Cl)cc(I)c1)C1CCC1 (stereo not drawn) [Compound 2.298],< 10
6,COc1ccc(C2(C3CCC3)C(C#N)=C(N)Oc3[nH]ncc32)cc1Cl (stereo not drawn) [Compound 2.253],< 10
7,Cc1n[nH]c2c1C(c1cc(Cl)cc(-c3nccs3)c1)(C1CCC1)C(C#N)=C(N)O2 (stereo not drawn) [Compound 2.320],< 10
8,Cc1n[nH]c2c1C(c1cc(Br)cc(Br)c1)(C1CCC1)C(C#N)=C(N)O2 (stereo not drawn) [Compound 2.232],< 10
9,COc1c(Cl)cc(C2(C3CCC3)C(C#N)=C(N)Oc3[nH]nc(C)c32)cc1Cl (stereo not drawn) [Compound 2.292],< 10
10,COc1n[nH]c2c1C(c1cc(Br)cc(C#N)c1)(C1(F)CC1)C(C#N)=C(N)O2 (stereo not drawn) [Compound 2.394],< 100
11,Cc1n[nH]c2c1C(c1cc(Cl)cc(Oc3ccccc3Cl)c1)(C1CCC1)C(C#N)=C(N)O2 (stereo not drawn) [Compound 2.236],< 10
12,Cc1n[nH]c2c1C(c1cccc(C(C)(F)F)c1)(C1CCC1)C(C#N)=C(N)O2 (stereo not drawn) [Compound 2.305],< 100

# Same assay, conditions: Table 2; values given as upper bounds
row,Compound,EC50 [nM]
1,Cc1n[nH]c2c1C(c1ccc(Cl)c(Cl)c1)(C1CCCC1)C(C#N)=C(N)O2 (stereo not drawn) [Compound 2.210.],< 100
2,Cc1n[nH]c2c1C(c1cc(C#N)cc(-c3ccc(C(=O)O)c(Cl)c3)c1)(C1CCC1)C(C#N)=C(N)O2 (stereo not drawn) [Compound 2.562],< 10
3,CCCC1(c2cc(C#N)cc(C#N)c2)C(C#N)=C(N)Oc2[nH]nc(COC)c21 (stereo not drawn) [Compound 2.593],< 10000
4,CCC1(c2cc(Cl)cc(Cl)c2)C(C#N)=C(N)Oc2[nH]nc(C3CC3)c21 (stereo not drawn) [Compound 2.133.],< 1000
5,Cc1n[nH]c2c1C(c1cc(Cl)c(OCC(=O)O)c(Cl)c1)(C1CCC1)C(C#N)=C(N)O2 (stereo not drawn) [Compound 2.504],< 1000
6,CCC1(c2cc(C(F)(F)F)cc(C(F)(F)F)c2)C(C#N)=C(N)Oc2[nH]nc(C(C)C)c21 (stereo not drawn) [Compound 2.120.],< 100
7,Cc1n[nH]c2c1C(c1cc(Br)cc(OCC(=O)O)c1)(C1CCC1)C(C#N)=C(N)O2 (stereo not drawn) [Compound 2.507],< 10000
8,CCCC1(c2cc(Cl)cc(C#N)c2)C(C#N)=C(N)Oc2[nH]nc(CC)c21 (stereo not drawn) [Compound 2.577],< 100
9,Cc1n[nH]c2c1C(c1cc(Cl)cc(Cl)c1)(C1CC(F)(F)C1)C(C#N)=C(N)O2 (stereo not drawn) [Compound 2.652],< 10
10,Cc1n[nH]c2c1C(c1cc(Cl)cc(OCC#N)c1)(C1CCC1)C(C#N)=C(N)O2 (stereo not drawn) [Compound 2.443],< 10
11,COC(=O)Cc1ccc(-c2cc(C#N)cc(C3(C4CCC4)C(C#N)=C(N)Oc4[nH]nc(C)c43)c2)cc1 (stereo not drawn) [Compound 2.526],< 10
12,Cc1n[nH]c2c1C(c1cc(C#N)cc(N(C)C(=O)CCCC(=O)O)c1)(C1CCC1)C(C#N)=C(N)O2 (stereo not drawn) [Compound 2.636],< 10
13,Cc1n[nH]c2c1C(c1ccc(CCc3nnn[nH]3)c(Cl)c1)(C1CCC1)C(C#N)=C(N)O2 (stereo not drawn) [Compound 2.637],< 10
14,CCC1(c2ccc(OS(=O)(=O)C(C)C)c(C)c2)C(C#N)=C(N)Oc2[nH]nc(C)c21 (stereo not drawn) [Compound 2.54.],< 1000
15,Cc1n[nH]c2c1C(c1ccc(F)c(Cl)c1)(C1CCC1)C(C#N)=C(N)O2 (stereo not drawn) [Compound 2.182.],< 100
16,CCC1(c2cc(F)cc(C(F)(F)F)c2)C(C#N)=C(N)Oc2[nH]nc(C)c21 (stereo not drawn) [Compound 2.33.],< 100
17,CCC1(c2cc(F)cc(F)c2)C(C#N)=C(N)Oc2[nH]nc(C)c21 (stereo not drawn) [Compound 2.17.],< 1000
18,COCOc1cc(C(F)(F)F)cc(C2(C3CCC3)C(C#N)=C(N)Oc3[nH]nc(C)c32)c1 (stereo not drawn) [Compound 2.476],< 10
19,Cc1n[nH]c2c1C(c1cc(Cl)cc(Cc3nnn[nH]3)c1)(C1CCC1)C(C#N)=C(N)O2 (stereo not drawn) [Compound 2.570],< 10
20,Cc1n[nH]c2c1C(c1ccc(OCCc3nnn[nH]3)c(Cl)c1)(C1CCC1)C(C#N)=C(N)O2 (stereo not drawn) [Compound 2.646],< 10
21,Cc1n[nH]c2c1C(c1cc(C#N)cc(N(C)C(=O)CCC(=O)O)c1)(C1CCC1)C(C#N)=C(N)O2 (stereo not drawn) [Compound 2.632],< 10
22,Cc1n[nH]c2c1C(c1cc(Cl)cc(Oc3ccccc3)c1)(C1CCC1)C(C#N)=C(N)O2 (stereo not drawn) [Compound 2.179.],< 100
23,CC(C)c1n[nH]c2c1C(c1ccc(Cl)cc1)(C1CC1)C(C#N)=C(N)O2 (stereo not drawn) [Compound 2.128.],< 10000
24,COc1ccc(C2(C(C)C)C(C#N)=C(N)Oc3[nH]nc(C)c32)cc1Cl (stereo not drawn) [Compound 2.124.],< 10
25,CCC1(c2cccc(F)c2)C(C#N)=C(N)Oc2[nH]nc(C)c21 (racemic) [Compound 2.9.],< 1000
26,CCC1(c2ccc(Oc3ccccc3)cc2)C(C#N)=C(N)Oc2[nH]nc(C(C)C)c21 (racemic) [Compound 2.160.],< 10000
27,COc1c(F)cc(C2(C3(F)CC3)C(C#N)=C(N)Oc3[nH]nc(C)c32)cc1F (stereo not drawn) [Compound 2.448],< 1000
28,CCCC1(c2cc(C#N)cc(C(F)(F)F)c2)C(C#N)=C(N)Oc2[nH]nc(C)c21 (stereo not drawn) [Compound 2.531],< 10
29,Cc1n[nH]c2c1C(c1cc(Cl)cc(Cl)c1)(C(C)F)C(C#N)=C(N)O2 (stereo not drawn) [Compound 2.651],< 10

# Same assay, conditions: inhibition of initial velocity of Arabidopsis thaliana SHMT
row,Compound,EC50 [nM]
1,Cc1n[nH]c2c1C(c1ccc(-c3ccc(F)cc3)s1)(C1CCC1)C(C#N)=C(N)O2 (stereo not drawn) [Compound 4.8],< 10
2,COc1ccc2cc(C3(C4(F)CC4)C(C#N)=C(N)Oc4[nH]ncc43)ccc2c1 (racemic) [Compound 4.75],< 1000
3,Cc1n[nH]c2c1C(c1nc3c(Cl)cccc3s1)(C1CCC1)C(C#N)=C(N)O2 (stereo not drawn) [Compound 4.45],< 10
4,COC(=O)c1ccc(C2(C3CCC3)C(C#N)=C(N)Oc3[nH]nc(C)c32)s1 (stereo not drawn) [Compound 4.27],< 10
5,Cc1n[nH]c2c1C(c1ccc3c(c1)CCO3)(C1CCC1)C(C#N)=C(N)O2 (stereo not drawn) [Compound 4.32],< 10
6,Cc1n[nH]c2c1C(C(C)C)(C(F)(F)c1cccc(Cl)c1)C(C#N)=C(N)O2 (stereo not drawn) [Compound 4.67],< 1000
